# From ChEMBL document CHEMBL1201862, “PubChem BioAssay data set” (2004)
# Active and inactive are the calls of the source.
# What was measured:
# [1] = T. cruzi growth inhibition in host cells, dose response, cell-based, plate reader, dry powder, set 2 (AID 652275); assay type: functional
# [2] = P. falciparum Dd2 growth inhibitors, dose response, SYBR Green, cherry-picked samples (AID 1159567); assay type: functional, cell-based
# [3] = target: T1, Oxysterols receptor LXR-beta (Homo sapiens, UniProt P55055); assay type: functional, cell-based;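 also: agonist activity at LXR measured by a cell-based luminescence readout across a dose range, run as a counterscreen for daf-12 agonists; HEK293 cells with Gal4-LXR fusion and GAL4-driven luciferase reporter; potency for activation of Gal4-LXR reporter so compounds are agonists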
# T1 sequence (P55055 whole entry): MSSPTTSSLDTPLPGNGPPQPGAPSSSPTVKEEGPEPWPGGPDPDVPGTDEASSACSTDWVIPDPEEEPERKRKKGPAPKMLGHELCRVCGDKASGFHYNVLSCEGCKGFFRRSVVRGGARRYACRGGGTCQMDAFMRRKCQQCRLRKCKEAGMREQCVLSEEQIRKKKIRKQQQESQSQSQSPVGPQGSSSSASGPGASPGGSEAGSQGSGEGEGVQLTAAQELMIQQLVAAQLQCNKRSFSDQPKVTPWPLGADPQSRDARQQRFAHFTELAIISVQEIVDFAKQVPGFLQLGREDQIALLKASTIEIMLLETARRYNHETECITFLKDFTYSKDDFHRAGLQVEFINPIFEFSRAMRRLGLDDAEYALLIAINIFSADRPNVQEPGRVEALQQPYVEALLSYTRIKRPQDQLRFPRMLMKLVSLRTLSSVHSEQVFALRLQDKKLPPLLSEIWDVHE
# [4] = growth inhibition of yeast DHODH-expressing 3D7 parasites – SYBR Green, dry powder samples, dose response (AID 1159570); assay type: functional, cell-based;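 also: parasite growth measured after 72 hours of compound exposure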
# [5] = toxicity to human HepG2 hepatoma cells – cell-based, plate reader, dry powder samples, cytotoxicity control, dose response (AID 1159569); assay type: functional;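 also: inhibitor potency with signal falling toward the positive control level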
# [6] = Dd2 malaria parasite growth inhibition potency – SYBR Green, dry powder samples, dose response (AID 1159566); assay type: functional, cell-based;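 also: potency for growth inhibition with lower SYBR green DNA signal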
# [7] = growth inhibition of PfATP4-mutant resistant parasites – NITD609-resistant line, SYBR Green, dry powder, dose response (AID 1159571); assay type: functional, cell-based;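 also: parasites synchronized at ring stage by sorbitol before testing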
# [8] = toxicity to human hepatoma HepG2 cells – cell-based, cherry-picked samples, cytotoxicity control, dose response (AID 1159577); assay type: functional
# [9] = Trypanosoma cruzi growth suppression in host cells – NIH3T3 host cells, beta-gal luminescence, confirmation (AID 2044); assay type: functional, cell-based;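 also: intracellular parasites grown in NIH/3T3 mouse fibroblasts as host cells; luminescent beta-galactosidase reporter signal from transgenic T. cruzi replicating inside host cells; inhibitors lower the luminescence signal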
# [10] = NIH3T3 cell viability loss – ATP luminescence, mouse fibroblasts, counter-screen, dose response (AID 2010); assay type: functional, cell-based;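 also: cells exposed to compound for about 90 hours before reading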
# [11] = target: Heat shock protein HSP 90-alpha (Homo sapiens, UniProt P07900); assay type: functional, organism-based
# Caspase-6 = target: T2, Caspase-6 (Homo sapiens, UniProt P55212); test: inhibition of CASP6 peptide cleavage – biochemical, VEID-R110 fluorescence, cherry-pick, dose response (AID 720632)
# T2 sequence (P55212 whole entry): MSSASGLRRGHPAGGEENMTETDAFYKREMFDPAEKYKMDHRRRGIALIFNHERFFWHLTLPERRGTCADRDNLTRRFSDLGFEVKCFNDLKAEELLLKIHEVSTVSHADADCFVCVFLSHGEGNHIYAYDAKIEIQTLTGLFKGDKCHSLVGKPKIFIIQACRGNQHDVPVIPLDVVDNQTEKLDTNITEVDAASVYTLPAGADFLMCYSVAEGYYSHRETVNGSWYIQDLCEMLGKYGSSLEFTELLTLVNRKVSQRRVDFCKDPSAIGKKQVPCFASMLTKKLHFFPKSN
# [12] = viability loss in THP-1 monocytes – THP-1 cells, cytotoxicity control for Vif-APOBEC3G degradation inhibitor project, dose response (AID 1117359); assay type: functional; details: THP-1
Structure (SMILES),AC50 [1],AC50 [2],AC50 [4],AC50 [5],AC50 [6],AC50 [7],other results
C[C@H]1CN([C@@H](C)CO)C(=O)c2cccc(NC(=O)c3ccncc3)c2O[C@@H]1CN(C)Cc1cc(Cl)ccc1Cl,0.0573 µM (active),,,,,,
CC(C)(C)[S+]([O-])N1Cc2cc(C(=O)NCc3ccc4c(c3)OCO4)nc(-c3cccc(C#CCC4CCCC4)c3)c2[C@@H]1CCO (some centres not stated),0.883 µM (active),3.54 µM (active),,,,,
C=CCN1C(=O)[C@@H](CC(=O)N2CCSCC2)[C@]2(C(=O)OC)CCCCC=C12,,,,,,,EC50 [3]: > 67.5 µM (inactive)
OC[C@H]1[C@H](c2ccc(Br)cc2)[C@@H]2CN(Cc3ccccn3)CCCCN12,3.71 µM (active),,,,,,
COc1ccc(CN2C[C@H](C)[C@@H](OC)CN(C)C(=O)c3ccc(NC(=O)c4nc5ccccc5s4)cc3OC[C@@H]2C)cc1,,2.9 µM (active),5.03 µM (active),67.3 µM (active),2.64 µM (active),3.82 µM (active),
C[C@H]1CN([C@@H](C)CO)C(=O)c2c(c3ccccc3n2C)-c2ccccc2CO[C@@H]1CN(C)Cc1ccc(Cl)c(Cl)c1,,1.94 µM (active),3.11 µM (active),18.4 µM (active),1.43 µM (active),1.87 µM (active),
c1ccc(CN2C[C@@H]3N[C@H](C2)[C@@H]3c2ccc(-c3ccncc3)cc2)cc1,,2.35 µM (active),3.96 µM (active),18 µM (active),1.54 µM (active),1.66 µM (active),AC50 [8]: > 39 µM (inactive)
O=[N+]([O-])c1cc(CN2CCN(c3cccc(C(F)(F)F)c3)CC2)c2cccnc2c1O,,,,,,,EC50 [9]: 0.493 µM (active); EC50 [10]: 4.99 µM (active); AC50 [11]: 3.53 µM (active); AC50 (Caspase-6): 33.8 µM (active); CC50 [12]: 2.18 µM (active)
Cc1cc2ncc(-c3ccccc3)nc2cc1C [AG1295],,,,,,,EC50 [3]: > 67.5 µM (inactive)
